# According to US7582649B2, “Hydroxy alkyl substituted 1,3,8-triazaspiro[4.5]decan-4-one derivatives useful for the treatment of ORL-1 receptor mediated disorders” (Janssen Pharmaceutica, NV, priority 2002, dated 2009):
# pIC50: −log10 of the molar value. Read-outs that look alike come from different tables or passages of the source.
# How the values were obtained:
# [1] = system: Long-Evans Hooded rats; details: male, rat, in vivo, po
# [2] = molecular target: kappa opioid receptor (Homo sapiens, UniProt P41145); experiment: Filtration binding assay: kappa opioid receptor
# Chain of kappa opioid receptor (P41145 whole entry): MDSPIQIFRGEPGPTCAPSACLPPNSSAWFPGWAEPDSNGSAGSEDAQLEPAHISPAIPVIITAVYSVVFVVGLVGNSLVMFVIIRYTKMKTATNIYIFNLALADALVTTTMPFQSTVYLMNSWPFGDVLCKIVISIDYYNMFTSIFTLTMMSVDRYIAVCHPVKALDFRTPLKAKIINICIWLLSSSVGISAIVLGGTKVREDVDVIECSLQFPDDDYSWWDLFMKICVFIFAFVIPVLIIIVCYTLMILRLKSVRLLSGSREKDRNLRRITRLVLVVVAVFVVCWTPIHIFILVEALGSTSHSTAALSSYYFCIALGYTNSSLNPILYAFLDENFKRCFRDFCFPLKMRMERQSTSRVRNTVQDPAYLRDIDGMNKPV
# [3] = molecular target: D2 receptor (Homo sapiens, UniProt P14416); experiment: Filtration binding assay, dopamine (Spiperone-I125); details: D2 receptor, Spiperone-I125; read-out: IC50
# Chain of D2 receptor (P14416 whole entry): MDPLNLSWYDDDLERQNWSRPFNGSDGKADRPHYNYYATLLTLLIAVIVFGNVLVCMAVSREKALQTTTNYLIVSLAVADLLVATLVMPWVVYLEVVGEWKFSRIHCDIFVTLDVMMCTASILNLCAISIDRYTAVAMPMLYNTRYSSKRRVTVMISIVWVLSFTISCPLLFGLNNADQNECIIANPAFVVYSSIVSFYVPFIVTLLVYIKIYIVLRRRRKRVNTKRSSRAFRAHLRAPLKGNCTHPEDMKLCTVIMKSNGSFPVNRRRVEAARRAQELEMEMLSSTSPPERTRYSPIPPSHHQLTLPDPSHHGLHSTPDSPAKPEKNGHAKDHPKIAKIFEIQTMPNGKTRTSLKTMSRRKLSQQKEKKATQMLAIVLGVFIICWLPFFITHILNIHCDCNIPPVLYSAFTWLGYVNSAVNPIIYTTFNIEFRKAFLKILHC
# [4] = molecular target: delta opioid receptor (Homo sapiens, UniProt P41143); experiment: Filtration binding assay: delta opioid receptor
# Chain of delta opioid receptor (P41143 whole entry): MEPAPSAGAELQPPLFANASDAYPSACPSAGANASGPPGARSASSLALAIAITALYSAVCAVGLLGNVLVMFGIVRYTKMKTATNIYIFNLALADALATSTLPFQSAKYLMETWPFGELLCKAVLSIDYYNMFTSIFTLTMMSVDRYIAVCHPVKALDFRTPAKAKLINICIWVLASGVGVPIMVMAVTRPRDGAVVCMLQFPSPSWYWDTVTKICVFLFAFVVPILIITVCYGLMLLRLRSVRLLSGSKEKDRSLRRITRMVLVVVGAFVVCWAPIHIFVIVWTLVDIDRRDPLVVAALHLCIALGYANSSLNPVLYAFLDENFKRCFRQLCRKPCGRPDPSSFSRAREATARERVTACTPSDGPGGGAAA
# [5] = molecular target: mu opioid receptor (Homo sapiens, UniProt P35372); experiment: Filtration binding assay: mu opioid receptor
# Chain of mu opioid receptor (P35372 whole entry): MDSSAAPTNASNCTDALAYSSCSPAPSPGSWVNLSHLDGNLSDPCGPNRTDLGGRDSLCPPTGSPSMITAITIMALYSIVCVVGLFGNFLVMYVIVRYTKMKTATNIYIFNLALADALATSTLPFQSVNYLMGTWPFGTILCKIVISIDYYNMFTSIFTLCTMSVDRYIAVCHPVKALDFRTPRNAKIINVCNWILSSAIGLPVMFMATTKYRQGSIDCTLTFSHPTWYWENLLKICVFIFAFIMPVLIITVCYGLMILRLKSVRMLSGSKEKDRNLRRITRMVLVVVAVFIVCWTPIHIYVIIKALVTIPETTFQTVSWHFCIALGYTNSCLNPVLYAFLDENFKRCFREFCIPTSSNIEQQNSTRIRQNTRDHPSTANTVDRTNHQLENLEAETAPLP
# [6] = system: Long-Evans Hooded rats; details: rat, in vivo; for Total Entries (EPM), % Change / Total Entries (EPM), Mean / reduction of total number of entries into various zones of the maze: male, Long-Evans Hooded; for Total Entries (EPM), % Change / Total Entries (EPM), Mean / reduction of total number of entries into various zones of the maze / % Open Arm Entries (EPM), % Change / % Open Arm Entries (EPM), Mean / % Open Arm Time (EPM), % Change / % Open Arm Time (EPM), Mean / percent open arm entries, increase as compared to vehicle: po
smiles,measurement,setting,value
"NC[C@H](O)CN1CN(c2ccc(F)cc2)C2(CCN([C@@H]3Cc4cccc5cccc3c45)CC2)C1=O [Compound #424, (R)-8-Acenaphthen-1-yl-3-(3-amino-2-hydroxy-(S)-propyl)-1-(4-fluoro-phenyl)-1,3,8-triaza-spiro[4.5]decan-4-one]","Horizontal Activity (SMA), % Change",[1]; 0.3 mg/kg,5.3%
same,"Horizontal Activity (SMA), Mean",[1]; 0.3 mg/kg,3033
same,"Vertical Movement (SMA), % Change",[1]; 0.3 mg/kg,11.2%
same,"Vertical Movement (SMA), Mean",[1]; 0.3 mg/kg,54.6
same,"Horizontal Activity (SMA), % Change",[1]; 1 mg/kg,−4.5%
same,"Horizontal Activity (SMA), Mean",[1]; 1 mg/kg,2752
same,"Vertical Movement (SMA), % Change",[1]; 1 mg/kg,2.4%
same,"Vertical Movement (SMA), Mean",[1]; 1 mg/kg,50.3
same,reduction in number of vertical movements (rearing behavior),[1]; 1 mg/kg,17.8%
same,"Horizontal Activity (SMA), % Change",[1]; 3 mg/kg,14.5%
same,"Horizontal Activity (SMA), Mean",[1]; 3 mg/kg,3300
same,"Vertical Movement (SMA), % Change",[1]; 3 mg/kg,15.7%
same,"Vertical Movement (SMA), Mean",[1]; 3 mg/kg,56.8
same,reduction in horizontal activity,[1]; 3 mg/kg,55%
same,reduction in number of vertical movements (rearing behavior),[1]; 3 mg/kg,73.4%
same,"Horizontal Activity (SMA), % Change",[1]; 10 mg/kg,−10.2%
same,"Horizontal Activity (SMA), Mean",[1]; 10 mg/kg,2588
same,"Vertical Movement (SMA), % Change",[1]; 10 mg/kg,−10.1%
same,"Vertical Movement (SMA), Mean",[1]; 10 mg/kg,44.2
same,reduction in horizontal activity,[1]; 10 mg/kg,83.7%
same,reduction in number of vertical movements (rearing behavior),[1]; 10 mg/kg,93.9%
same,pIC50,[2],6.22
same,pIC50,[3],6.56
same,pIC50,[4],6.55
same,pIC50,[5],6.55
same,"Total Entries (EPM), % Change",[6]; 0.3 mg/kg,−6.9%
same,"Total Entries (EPM), Mean",[6]; 0.3 mg/kg,90.0
same,"Total Entries (EPM), % Change",[6]; 1 mg/kg,−5.3%
same,"Total Entries (EPM), Mean",[6]; 1 mg/kg,91.5
same,reduction of total number of entries into various zones of the maze,[6]; 1 mg/kg,18.6%
same,"Total Entries (EPM), % Change",[6]; 3 mg/kg,−0.4%
same,"Total Entries (EPM), Mean",[6]; 3 mg/kg,96.3
same,reduction of total number of entries into various zones of the maze,[6]; 3 mg/kg,60.3%
same,"Total Entries (EPM), % Change",[6]; 10 mg/kg,6.1%
same,"Total Entries (EPM), Mean",[6]; 10 mg/kg,102.6
same,reduction of total number of entries into various zones of the maze,[6]; 10 mg/kg,76.7%
same,percent open arm entries,[6],significant increases
same,percent open arm time,[6],significant increases
same,"percent open arm time, increase as compared to vehicle",[6],97.5%
same,"% Open Arm Entries (EPM), % Change",[6]; 0.3 mg/kg,33.8%
same,"% Open Arm Entries (EPM), Mean",[6]; 0.3 mg/kg,7.33%
same,"% Open Arm Time (EPM), % Change",[6]; 0.3 mg/kg,70.1%
same,"% Open Arm Time (EPM), Mean",[6]; 0.3 mg/kg,9.80%
same,"% Open Arm Entries (EPM), % Change",[6]; 1 mg/kg,36.7%
same,"% Open Arm Entries (EPM), Mean",[6]; 1 mg/kg,7.49%
same,"% Open Arm Time (EPM), % Change",[6]; 1 mg/kg,69.4%
same,"% Open Arm Time (EPM), Mean",[6]; 1 mg/kg,9.76%
same,"% Open Arm Entries (EPM), % Change",[6]; 3 mg/kg,44.5%
same,"% Open Arm Entries (EPM), Mean",[6]; 3 mg/kg,7.92%
same,"% Open Arm Time (EPM), % Change",[6]; 3 mg/kg,75.3%
same,"% Open Arm Time (EPM), Mean",[6]; 3 mg/kg,10.1%
same,"percent open arm entries, increase as compared to vehicle",[6]; 3 mg/kg,205%
same,"% Open Arm Entries (EPM), % Change",[6]; 10 mg/kg,36.7%
same,"% Open Arm Entries (EPM), Mean",[6]; 10 mg/kg,7.49%
same,"% Open Arm Time (EPM), % Change",[6]; 10 mg/kg,30.9%
same,"% Open Arm Time (EPM), Mean",[6]; 10 mg/kg,7.54%
same,"percent open arm entries, increase as compared to vehicle",[6]; 10 mg/kg,237%
